From patent publication US9695155B2, “Herbicidal substituted pyrimidinyloxy benzene compounds” (E. I. DU PONT DE NEMOURS AND COMPANY, priority 2013, dated 2017)

Key:
giant foxtail = assay: Test A preemergence; assay type: in vivo, Setaria faberii; conditions: Setaria faberi, pre-emergence, 240 h
How it was run: (§1)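 Compounds in non-phytotoxic solvent with surfactant applied as soil spray preemergence, or postemergence to plants 2-10 cm at one- to two-leaf stage, in loam/sand. After approximately 10 days in greenhouse, injury rated visually versus untreated controls, 0 (no effect) to 100 (complete control).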

morningglory [1] = assay: Test A preemergence; assay type: in vivo, Ipomoea spp.
How it was run: as §1

velvetleaf [2] = assay: Test A preemergence; assay type: in vivo, Abutilon theophrasti
How it was run: as §1

wheat = assay: Test A preemergence; assay type: in vivo, Triticum aestivum
How it was run: as §1

morningglory [3] = assay: Test A postemergence; assay type: in vivo, Ipomoea spp.; conditions: Ipomoea, post-emergence, 240 h, 0 to 100 scale where 0 is no effect and 100 is complete control, read-out: Plant response rating, Morningglory
How it was run: as §1

velvetleaf [4] = assay: Test A postemergence; assay type: in vivo, Abutilon theophrasti; conditions: Abutilon theophrasti, post-emergence, 240 h, 0 to 100 scale where 0 is no effect and 100 is complete control, read-out: Plant response rating, Velvetleaf
How it was run: as §1

corn = assay: Test A postemergence; assay type: in vivo, Zea mays; conditions: Zea mays, post-emergence, 240 h
How it was run: as §1

blackgrass = assay: Test C postemergence; assay type: in vivo, Alopecurus myosuroides; conditions: Alopecurus myosuroides, post-emergence
How it was run: (§2)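 Plants were kept under greenhouse conditions for 13–15 days following spray. Pre-emergent application went to soil (loam–sand), post-emergent to foliage at 1–4 leaves. Evaluation: visual, percent control against untreated checks.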

wheat, winter = assay: Test C postemergence; assay type: in vivo, Triticum aestivum; conditions: Triticum aestivum, post-emergence
How it was run: as §2

galium = assay: Test C postemergence; assay type: in vivo, Galium aparine; conditions: Galium, post-emergence
How it was run: as §2

johnsongrass = assay: Test C postemergence; assay type: in vivo, Sorghum halepense; conditions: Sorghum halepense, post-emergence
How it was run: as §2

pigweed = assay: Test C postemergence; assay type: in vivo, Amaranthus retroflexus; conditions: Amaranthus retroflexus, post-emergence
How it was run: as §2

ragweed = assay: Test C postemergence; assay type: in vivo, Ambrosia elatior; conditions: Ambrosia artemisiifolia, post-emergence
How it was run: as §2

soybean = assay: Test C postemergence; assay type: in vivo, Glycine max; conditions: Glycine max, post-emergence
How it was run: as §2

oilseed rape = assay: Test C postemergence; assay type: in vivo, Brassica napus; conditions: Brassica napus, post-emergence
How it was run: as §2

waterhemp = assay: Test C postemergence; assay type: in vivo, Amaranthus rudis; conditions: Amaranthus tuberculatus, post-emergence
How it was run: as §2

kochia = assay: Test C postemergence; assay type: in vivo, Kochia scoparia; conditions: Bassia scoparia, post-emergence
How it was run: as §2

velvetleaf [5] = assay: Test C postemergence; assay type: in vivo, Abutilon theophrasti; conditions: Abutilon theophrasti, post-emergence
How it was run: as §2

[6] = 125 g ai/ha, 0 to 100 scale where 0 is no effect and 100 is complete control

In the case of `N#Cc1cccc(Oc2ncc(F)cn2)c1-n1cc(C(F)(F)F)cn1` [Compound 79, 3-[(5-fluoro-2-pyrimidinyl)oxy]-2-[4-(trifluoromethyl)-1H-pyrazol-1-yl]benzonitrile], the pest or weed control at 125 g/ha (giant foxtail; 125 g ai/ha, 0 to 100 scale where 0 is no effect and 100 is complete control, read-out: Plant response rating, Foxtail, Giant) is reported as 100%, the pest or weed control at 500 g/ha (giant foxtail; 500 g ai/ha, 0 to 100 scale, 0 no effect, 100 complete control, approx. 10 days, read-out: Foxtail, Giant plant response rating) is reported as 100% and the “Plant response rating, Morningglory” value (morningglory [1]; [6]) is reported as 100. The pest or weed control at 500 g/ha (morningglory [1]; Ipomoea, pre-emergence, 240 h, 500 g ai/ha, 0 to 100 scale, 0 no effect, 100 complete control, approx. 10 days, read-out: Morningglory plant response rating) was 100%, the “Plant response rating, Velvetleaf” value (velvetleaf [2]; [6]) was 100 and the pest or weed control at 500 g/ha (velvetleaf [2]; Abutilon theophrasti, pre-emergence, 240 h, 500 g ai/ha, 0 to 100 scale, 0 no effect, 100 complete control, approx. 10 days, read-out: Velvetleaf plant response rating) was 100%. The “Plant response rating, Wheat” value (wheat; [6]) was 70, the plant injury at 500 g/ha (wheat; Triticum aestivum, pre-emergence, 240 h, 500 g ai/ha, 0 to 100 scale, 0 no effect, 100 complete control, approx. 10 days, read-out: Wheat plant response rating) was 100% and the pest or weed control at 125 g/ha (morningglory [3]; 125 g ai/ha) was 100%. For the same compound, the pest or weed control at 500 g/ha (morningglory [3]; 500 g ai/ha) was 100%, the pest or weed control at 125 g/ha (velvetleaf [4]; 125 g ai/ha) was 100% and the pest or weed control at 500 g/ha (velvetleaf [4]; 500 g ai/ha) was 100%. For the same compound, the Corn plant response rating (crop injury, 0 = no effect, 100 = complete kill) at 125 g/ha (corn; [6]) was 80%, the plant injury at 500 g/ha (corn; 500 g ai/ha, 0 to 100 scale, 0 no effect, 100 complete control, read-out: Plant response rating Corn) was 100% and the pest or weed control at 125 g/ha (blackgrass; 125 g ai/ha, postemergence, read-out: Plant response rating (0 to 100), Blackgrass) was 35%. It also gave a pest or weed control at 250 g/ha (blackgrass; 250 g ai/ha, postemergence, read-out: Plant response rating (0 to 100), Blackgrass) of 80%, a pest or weed control at 31 g/ha (blackgrass; Postemergence, 31 g ai/ha, scale 0 to 100 (0 no effect, 100 complete control), 13 to 15 days, read-out: Plant response rating, Blackgrass) of 10% and a pest or weed control at 62 g/ha (blackgrass; Postemergence, 62 g ai/ha, scale 0 to 100 (0 no effect, 100 complete control), read-out: Plant response rating, Blackgrass) of 30%. For the same compound, the plant injury at 125 g/ha (wheat, winter; 125 g ai/ha, postemergence, read-out: Plant response rating (0 to 100), Wheat) was 5%, the plant injury at 250 g/ha (wheat, winter; 250 g ai/ha, postemergence, read-out: Plant response rating (0 to 100), Wheat) was 35% and the plant injury at 31 g/ha (wheat, winter; Postemergence, 31 g ai/ha, scale 0 to 100 (0 no effect, 100 complete control), 13 to 15 days, read-out: Plant response rating, Wheat) was 0%. The plant injury at 62 g/ha (wheat, winter; Postemergence, 62 g ai/ha, scale 0 to 100 (0 no effect, 100 complete control), read-out: Plant response rating, Wheat) was 5%, the pest or weed control at 125 g/ha (galium; 125 g ai/ha, postemergence, read-out: Plant response rating (0 to 100), Galium) was 80% and the pest or weed control at 250 g/ha (galium; 250 g ai/ha, postemergence, read-out: Plant response rating (0 to 100), Galium) was 95%. It also gave a pest or weed control at 31 g/ha (galium; Postemergence, 31 g ai/ha, scale 0 to 100 (0 no effect, 100 complete control), 13 to 15 days, read-out: Plant response rating, Galium) of 65%, a pest or weed control at 62 g/ha (galium; Postemergence, 62 g ai/ha, scale 0 to 100 (0 no effect, 100 complete control), read-out: Plant response rating, Galium) of 75% and a pest or weed control at 125 g/ha (johnsongrass; 125 g ai/ha, postemergence, read-out: Plant response rating (0 to 100), Johnsongrass) of 40%. The pest or weed control at 250 g/ha (johnsongrass; 250 g ai/ha, postemergence, read-out: Plant response rating (0 to 100), Johnsongrass) was 85%, the pest or weed control at 31 g/ha (johnsongrass; Postemergence, 31 g ai/ha, scale 0 to 100 (0 no effect, 100 complete control), 13 to 15 days, read-out: Plant response rating, Johnsongrass) was 5% and the pest or weed control at 62 g/ha (johnsongrass; Postemergence, 62 g ai/ha, scale 0 to 100 (0 no effect, 100 complete control), read-out: Plant response rating, Johnsongrass) was 10%. The pest or weed control at 125 g/ha (pigweed; 125 g ai/ha, postemergence, read-out: Plant response rating (0 to 100), Pigweed) was 95%, the pest or weed control at 250 g/ha (pigweed; 250 g ai/ha, postemergence, read-out: Plant response rating (0 to 100), Pigweed) was 98% and the pest or weed control at 31 g/ha (pigweed; Postemergence, 31 g ai/ha, scale 0 to 100 (0 no effect, 100 complete control), 13 to 15 days, read-out: Plant response rating, Pigweed) was 75%. For the same compound, the pest or weed control at 62 g/ha (pigweed; Postemergence, 62 g ai/ha, scale 0 to 100 (0 no effect, 100 complete control), read-out: Plant response rating, Pigweed) was 95%, the pest or weed control at 125 g/ha (ragweed; 125 g ai/ha, postemergence, read-out: Plant response rating (0 to 100), Ragweed) was 70% and the pest or weed control at 250 g/ha (ragweed; 250 g ai/ha, postemergence, read-out: Plant response rating (0 to 100), Ragweed) was 85%. It also gave a pest or weed control at 31 g/ha (ragweed; Postemergence, 31 g ai/ha, scale 0 to 100 (0 no effect, 100 complete control), 13 to 15 days, read-out: Plant response rating, Ragweed) of 55%, a pest or weed control at 62 g/ha (ragweed; Postemergence, 62 g ai/ha, scale 0 to 100 (0 no effect, 100 complete control), read-out: Plant response rating, Ragweed) of 70% and a Soybean plant response rating (crop injury, 0-100 scale) at 125 g/ha (soybean; 125 g ai/ha, postemergence, read-out: Plant response rating (0 to 100), Soybean) of 90%. It also gave a Soybean plant response rating (crop injury, 0-100 scale) at 250 g/ha (soybean; 250 g ai/ha, postemergence) of 95%, a Soybean plant response rating (crop injury, 0-100 scale) at 31 g/ha (soybean; Postemergence, 31 g ai/ha, scale 0 to 100 (0 no effect, 100 complete control), 13 to 15 days) of 65% and a Soybean plant response rating (crop injury, 0-100 scale) at 62 g/ha (soybean; Postemergence, 62 g ai/ha, scale 0 to 100 (0 no effect, 100 complete control)) of 85%. For the same compound, the plant injury at 125 g/ha (oilseed rape; 125 g ai/ha, postemergence, read-out: Plant response rating (0 to 100), Oilseed Rape) was 50%, the plant injury at 250 g/ha (oilseed rape; 250 g ai/ha, postemergence, read-out: Plant response rating (0 to 100), Oilseed Rape) was 90% and the plant injury at 31 g/ha (oilseed rape; Postemergence, 31 g ai/ha, scale 0 to 100 (0 no effect, 100 complete control), 13 to 15 days, read-out: Plant response rating, Oilseed Rape) was 30%. The plant injury at 62 g/ha (oilseed rape; Postemergence, 62 g ai/ha, scale 0 to 100 (0 no effect, 100 complete control), read-out: Plant response rating, Oilseed Rape) was 50%, the pest or weed control at 125 g/ha (waterhemp; 125 g ai/ha, postemergence, read-out: Plant response rating (0 to 100), Waterhemp) was 90% and the pest or weed control at 250 g/ha (waterhemp; 250 g ai/ha, postemergence, read-out: Plant response rating (0 to 100), Waterhemp) was 100%. It also gave a pest or weed control at 31 g/ha (waterhemp; Postemergence, 31 g ai/ha, scale 0 to 100 (0 no effect, 100 complete control), 13 to 15 days, read-out: Plant response rating, Waterhemp) of 75%, a pest or weed control at 62 g/ha (waterhemp; Postemergence, 62 g ai/ha, scale 0 to 100 (0 no effect, 100 complete control), read-out: Plant response rating, Waterhemp) of 80% and a pest or weed control at 125 g/ha (kochia; 125 g ai/ha, postemergence, read-out: Plant response rating (0 to 100), Kochia) of 95%. For the same compound, the pest or weed control at 250 g/ha (kochia; 250 g ai/ha, postemergence, read-out: Plant response rating (0 to 100), Kochia) was 95%, the pest or weed control at 31 g/ha (kochia; Postemergence, 31 g ai/ha, scale 0 to 100 (0 no effect, 100 complete control), 13 to 15 days, read-out: Plant response rating, Kochia) was 90% and the pest or weed control at 62 g/ha (kochia; Postemergence, 62 g ai/ha, scale 0 to 100 (0 no effect, 100 complete control), read-out: Plant response rating, Kochia) was 90%. It also gave a pest or weed control at 125 g/ha (velvetleaf [5]; 125 g ai/ha, postemergence, read-out: Plant response rating (0 to 100), Velvetleaf) of 70%, a pest or weed control at 250 g/ha (velvetleaf [5]; 250 g ai/ha, postemergence, read-out: Plant response rating (0 to 100), Velvetleaf) of 90% and a pest or weed control at 31 g/ha (velvetleaf [5]; Postemergence, 31 g ai/ha, scale 0 to 100 (0 no effect, 100 complete control), 13 to 15 days, read-out: Plant response rating, Velvetleaf) of 55%. The pest or weed control at 62 g/ha (velvetleaf [5]; Postemergence, 62 g ai/ha, scale 0 to 100 (0 no effect, 100 complete control), read-out: Plant response rating, Velvetleaf) was 70%.
